# Patent US7253138B2, “Corrosion and gas hydrate inhibitors having improved water solubility and increased biodegradability” (Clariant Produkte (Deutschland) GmbH, priority 2003, dated 2007)
# Experiment: Shell wheel test (corrosion inhibition)
# Settings: salt water/petroleum mixture (9:1.5% NaCl solution, pH 3.5 with acetic acid), 40 rpm, 70° C., 24 hours; 50 ppm of a 40% solution of the inhibitor; from mass reduction vs blank
# Description: The compounds according to the invention were tested as corrosion inhibitors in the Shell wheel test. Coupons of carbon steel (DIN 1.1203 having 15 cm^2 surface area) were immersed in a salt water/petroleum mixture (9:1.5% NaCl solution, adjusted to pH 3.5 using acetic acid) and subjected to this medium at a rotation rate of 40 rpm at 70° C. for 24 hours. The dosage of the inhibitor was 50 ppm of a 40% solution of the inhibitor. The protection values were calculated from the mass reduction of the coupons, based on a blank value.
# In the table which follows, “comparison” refers to a commercial soya fatty acid amidopropyl-N,N-dimethylammonium carboxymethyl betaine described by EP-B-0 446 616 (prior art corrosion inhibitor).
row,Substance,ø Protection %
1,"Dodecenyl-/tetradecenylsuccinimido-N,N-dimethylpropylammonium N-methylcarboxyl betaine [Betaine from example 7]",84.9%
2,"Pentapropylenesuccinimido-N,N-dimethylpropylammonium N-methylcarboxyl betaine [Betaine from example 9]",90.4%
3,"Polyisobutenylsuccinimido-N,N-dimethylpropylammonium N-methyl-carboxyl betaine [Betaine from example 10]",90.1%
4,"Polyisobutenylsuccinimido-N,N-dimethylpropylammonium N-methyl-carboxyl betaine [Betaine from example 11]",80.6%
5,"Polyisobutenylsuccinimido-N,N-dimethylpropylammonium N-methyl-carboxyl betaine [Betaine from example 12]",82.7%
6,"Tetrapropylenesuccinimido-N,N-dimethylpropylammonium N-methylcarboxyl betaine [Betaine from example 8]",84.0%
7,"soya fatty acid amidopropyl-N,N-dimethylammonium carboxymethyl betaine [Comparison, reference compound]",75.4%

# Experiment: LPR test (corrosion inhibition, test conditions similar to ASTM D 2776)
# Settings: 10 min
# Description: The products were also tested in the LPR test (test conditions similar to ASTM D 2776).
row,Substance,Protection after 10 min
1,"Dodecenyl-/tetradecenylsuccinimido-N,N-dimethylpropylammonium N-methylcarboxyl betaine [Betaine from example 7]",72.5%
2,"Pentapropylenesuccinimido-N,N-dimethylpropylammonium N-methylcarboxyl betaine [Betaine from example 9]",77.9%
3,"Polyisobutenylsuccinimido-N,N-dimethylpropylammonium N-methyl-carboxyl betaine [Betaine from example 10]",79.1%
4,"Polyisobutenylsuccinimido-N,N-dimethylpropylammonium N-methyl-carboxyl betaine [Betaine from example 11]",61.9%
5,"Polyisobutenylsuccinimido-N,N-dimethylpropylammonium N-methyl-carboxyl betaine [Betaine from example 12]",70.0%
6,"Tetrapropylenesuccinimido-N,N-dimethylpropylammonium N-methylcarboxyl betaine [Betaine from example 8]",74.0%
7,"soya fatty acid amidopropyl-N,N-dimethylammonium carboxymethyl betaine [Comparison, reference compound]",45.9%

# Same assay, conditions: 30 min
row,Substance,Protection after 30 min
1,"Dodecenyl-/tetradecenylsuccinimido-N,N-dimethylpropylammonium N-methylcarboxyl betaine [Betaine from example 7]",92.0%
2,"Pentapropylenesuccinimido-N,N-dimethylpropylammonium N-methylcarboxyl betaine [Betaine from example 9]",94.0%
3,"Polyisobutenylsuccinimido-N,N-dimethylpropylammonium N-methyl-carboxyl betaine [Betaine from example 10]",92.3%
4,"Polyisobutenylsuccinimido-N,N-dimethylpropylammonium N-methyl-carboxyl betaine [Betaine from example 11]",70.6%
5,"Polyisobutenylsuccinimido-N,N-dimethylpropylammonium N-methyl-carboxyl betaine [Betaine from example 12]",79.4%
6,"Tetrapropylenesuccinimido-N,N-dimethylpropylammonium N-methylcarboxyl betaine [Betaine from example 8]",81.3%
7,"soya fatty acid amidopropyl-N,N-dimethylammonium carboxymethyl betaine [Comparison, reference compound]",59.2%

# Same assay, conditions: 60 min
row,Substance,Protection after 60 min
1,"Dodecenyl-/tetradecenylsuccinimido-N,N-dimethylpropylammonium N-methylcarboxyl betaine [Betaine from example 7]",98.1%
2,"Pentapropylenesuccinimido-N,N-dimethylpropylammonium N-methylcarboxyl betaine [Betaine from example 9]",99.8%
3,"Polyisobutenylsuccinimido-N,N-dimethylpropylammonium N-methyl-carboxyl betaine [Betaine from example 10]",99.2%
4,"Polyisobutenylsuccinimido-N,N-dimethylpropylammonium N-methyl-carboxyl betaine [Betaine from example 11]",80.6%
5,"Polyisobutenylsuccinimido-N,N-dimethylpropylammonium N-methyl-carboxyl betaine [Betaine from example 12]",86.3%
6,"Tetrapropylenesuccinimido-N,N-dimethylpropylammonium N-methylcarboxyl betaine [Betaine from example 8]",84.9%
7,"soya fatty acid amidopropyl-N,N-dimethylammonium carboxymethyl betaine [Comparison, reference compound]",64.2%

# Experiment: Agitation foam method
# Assay type: physicochemical
# Settings: 50 ml of a 3% aqueous solution in demineralized water, agitated 20 times within 10 sec in closed 100 ml cylinder
# Description: The foam properties were tested with the agitation foam method. To this end, 50 ml of a 3% aqueous solution of the appropriate corrosion inhibitor in demineralized water were agitated in a closed 100 ml measuring cylinder 20 times within 10 sec. On completion of the agitation, the foaming behavior was assessed using the total volume of the solution (foam height) and the foam decomposition time (time until attainment of the starting volume of 50 ml).
row,Foaming behavior,Substance
1,Weakly foaming,"Pentapropylenesuccinimido-N,N-dimethylpropylammonium N-methylcarboxyl betaine [Betaine from example 9]"
2,Weakly foaming,"Polyisobutenylsuccinimido-N,N-dimethylpropylammonium N-methyl-carboxyl betaine [Betaine from example 10]"
3,Weakly foaming,"Polyisobutenylsuccinimido-N,N-dimethylpropylammonium N-methyl-carboxyl betaine [Betaine from example 11]"
4,Strongly foaming,"soya fatty acid amidopropyl-N,N-dimethylammonium carboxymethyl betaine [Comparison, reference compound]"
